Literature values in patent US20080167327A1, “HYDRATES OF ERLOTINIB HYDROCHLORIDE” (priority 2006, published 2008).
Counter-ions that a name gives are not always drawn.

Assays:
[1] = compared with Form A; disclosed in WO 01/34574
[2] = compared with Form B; disclosed in WO 2004/072049

Structure (SMILES)	thermodynamic stability [1]	solubility [2]
C#Cc1cccc(Nc2ncnc3cc(OCCOC)c(OCCOC)cc23)c1 [Form B, erlotinib hydrochloride]	thermodynamically more stable than Form A	
C#Cc1cccc(Nc2ncnc3cc(OCCOC)c(OCCOC)cc23)c1 [Form E, erlotinib hydrochloride]		higher solubility
